Reference: patent US11752120B2, “Use of succinic acid in increasing sensitivity of bacteria to antibiotics” (SUN YAT-SEN UNIVERSITY, priority 2018, dated 2023)
Structures can show the parent of a compound that is named as a salt.

Key:
[1] = system: E. coli K12; test: Minimum inhibitory concentration (MIC), NCCLS method, control strain; type: cell-based, Escherichia coli; settings: no unit in table, MIC in μg/mL
Excerpt: (§1) Escherichia coli (E. coli) are one of the most common bacteria in the clinic. 30 strains of E. coli obtained from the clinic were named YT1-30. The minimum inhibitory concentrations (MIC) of 8 antibiotics against these 30 clinically obtained E. coli was detected according to the NCCLS method, and E. coli K12 was used as a control.

[2] = system: clinical Escherichia coli YT1-30; test: Minimum inhibitory concentration (MIC), NCCLS method, 30 clinical strains; type: cell-based; design: Minimum inhibitory concentration (MIC): unit not given here
Excerpt: as §1

| Compound | Minimum inhibitory concentration (MIC) [1] | Minimum inhibitory concentration (MIC) ([2]; strain YT1) | Minimum inhibitory concentration (MIC) ([2]; strain YT2) | Minimum inhibitory concentration (MIC) ([2]; strain YT3) | Minimum inhibitory concentration (MIC) ([2]; strain YT4) | Minimum inhibitory concentration (MIC) ([2]; strain YT5) | Minimum inhibitory concentration (MIC) ([2]; strain YT6) | Minimum inhibitory concentration (MIC) ([2]; strain YT7) | Minimum inhibitory concentration (MIC) ([2]; strain YT8) | Minimum inhibitory concentration (MIC) ([2]; strain YT9) | Minimum inhibitory concentration (MIC) ([2]; strain YT10) | Minimum inhibitory concentration (MIC) ([2]; strain YT11) | Minimum inhibitory concentration (MIC) ([2]; strain YT12) | Minimum inhibitory concentration (MIC) ([2]; strain YT13) | Minimum inhibitory concentration (MIC) ([2]; strain YT14) | Minimum inhibitory concentration (MIC) ([2]; strain YT15) | Minimum inhibitory concentration (MIC) ([2]; strain YT16) | Minimum inhibitory concentration (MIC) ([2]; strain YT17) | Minimum inhibitory concentration (MIC) ([2]; strain YT18) | Minimum inhibitory concentration (MIC) ([2]; strain YT19) | also measured |
| --- | --- | --- | --- | --- | --- | --- | --- | --- | --- | --- | --- | --- | --- | --- | --- | --- | --- | --- | --- | --- | --- |
| CCC[C@@H]1C[C@@H](C(=O)N[C@@H]([C@H]2O[C@H](SC)[C@H](O)[C@@H](O)[C@H]2O)[C@H](C)Cl)N(C)C1 [Clindamycin hydrochloride] | 24.414 | 390.625 | 390.625 | 390.625 | 1562.5 | 6250 | 1562.5 | 6250 | 6250 | 1562.5 | 6250 | 25000 | 25000 | 25000 | 25000 | 25000 | 25000 | 25000 | 390.625 | 390.625 | Minimum inhibitory concentration (MIC) ([2]; strain YT20): 390.625; Minimum inhibitory concentration (MIC) ([2]; strain YT21): 390.625; Minimum inhibitory concentration (MIC) ([2]; strain YT22): 390.625; Minimum inhibitory concentration (MIC) ([2]; strain YT23): 390.625; Minimum inhibitory concentration (MIC) ([2]; strain YT24): 390.625; Minimum inhibitory concentration (MIC) ([2]; strain YT25): 390.625; Minimum inhibitory concentration (MIC) ([2]; strain YT26): 390.625; Minimum inhibitory concentration (MIC) ([2]; strain YT27): 390.625; Minimum inhibitory concentration (MIC) ([2]; strain YT28): 1562.5; Minimum inhibitory concentration (MIC) ([2]; strain YT29): 390.625; Minimum inhibitory concentration (MIC) ([2]; strain YT30): 390.625 |
| Gentamicin | 0.61 | 2.441 | 156.25 | 156.25 | 9.765 | 625 | 156.25 | 625 | 625 | 156.25 | 625 | 2500 | 2500 | 2500 | 2500 | 2500 | 2500 | 2500 | 2.441 | 625 | Minimum inhibitory concentration (MIC) ([2]; strain YT20): 156.25; Minimum inhibitory concentration (MIC) ([2]; strain YT21): 2500; Minimum inhibitory concentration (MIC) ([2]; strain YT22): 2500; Minimum inhibitory concentration (MIC) ([2]; strain YT23): 156.25; Minimum inhibitory concentration (MIC) ([2]; strain YT24): 625; Minimum inhibitory concentration (MIC) ([2]; strain YT25): 2500; Minimum inhibitory concentration (MIC) ([2]; strain YT26): 2500; Minimum inhibitory concentration (MIC) ([2]; strain YT27): 625; Minimum inhibitory concentration (MIC) ([2]; strain YT28): 2500; Minimum inhibitory concentration (MIC) ([2]; strain YT29): 625; Minimum inhibitory concentration (MIC) ([2]; strain YT30): 39.0625 |
| CC(C)(O/N=C(\C(=O)N[C@@H]1C(=O)N2C(C(=O)[O-])=C(C[n+]3ccccc3)CS[C@H]12)c1csc(N)n1)C(=O)O [Ceftazidime] | 0.122 | 0.122 | 0.488 | 0.488 | 0.488 | 7.81 | 1.953 | 0.488 | 0.488 | 0.488 | 7.812 | 7.812 | 0.488 | 0.488 | 0.488 | 0.488 | 0.488 | 0.488 | 0.488 | 0.488 | MIC compared with the control E. coli K12 ([2]; strain YT1): the same as the control; Minimum inhibitory concentration (MIC) ([2]; strain YT20): 0.122; Minimum inhibitory concentration (MIC) ([2]; strain YT21): 0.488; Minimum inhibitory concentration (MIC) ([2]; strain YT22): 0.488; Minimum inhibitory concentration (MIC) ([2]; strain YT23): 0.488; Minimum inhibitory concentration (MIC) ([2]; strain YT24): 7.812; Minimum inhibitory concentration (MIC) ([2]; strain YT25): 31.25; Minimum inhibitory concentration (MIC) ([2]; strain YT26): 31.25; Minimum inhibitory concentration (MIC) ([2]; strain YT27): 0.488; Minimum inhibitory concentration (MIC) ([2]; strain YT28): 31.25; Minimum inhibitory concentration (MIC) ([2]; strain YT29): 7.812; Minimum inhibitory concentration (MIC) ([2]; strain YT30): 7.812 |
